Laboratory results published in the NIST ThermoML archive (doi:10.1021/je900974u).

How the values were obtained:
[1] = Molar enthalpy of transition or fusion; settings: Crystal; Adiabatic calorimetry
[2] = Crystal
[3] = molar heat capacity at constant pressure; settings: 101.33 kPa, Liquid, Vacuum adiabatic calorimetry

CCCCn1cc[n+](C)c1.N#CN=C=[N-] [1-butyl-3-methylimidazolium dicyanamide]
Settings | Molar enthalpy of transition or fusion [kcal/mol] | Triple point temperature [K]
[1] | 4.254 | –
[2] | – | 270.83

[3]
Settings | molar heat capacity at constant pressure [J/K/mol]
235.8 K | 355.9
237.81 K | 356.5
239.87 K | 356.9
241.93 K | 357.5
243.99 K | 357.9
246.05 K | 358.6
248.11 K | 359.2
249.31 K | 359.4
250.17 K | 359.8
251.33 K | 360.2
252.23 K | 360.4
253.39 K | 360.8
254.29 K | 360.8
255.46 K | 361.2
256.35 K | 361.4
257.53 K | 362
258.41 K | 362
259.59 K | 362.7
260.48 K | 362.7
261.66 K | 363.3
262.54 K | 363.5
263.72 K | 363.9
264.6 K | 364.1
265.79 K | 364.7
266.66 K | 364.7
267.86 K | 365.3
268.72 K | 365.3
269.92 K | 365.9
270.79 K | 366.1
271.99 K | 366.5
272.85 K | 366.8
274.05 K | 367.2
274.91 K | 367.4
276.12 K | 368
278.19 K | 368.6
280.25 K | 369.4
282.32 K | 370
284.39 K | 370.9
286.45 K | 371.5
288.52 K | 372.3
290.59 K | 372.9
292.65 K | 373.7
294.72 K | 374.5
296.78 K | 375.4
298.85 K | 376.2
300.92 K | 376.8
302.98 K | 377.6
305.05 K | 378.4
307.12 K | 379.1
309.18 K | 379.9
311.25 K | 380.7
313.32 K | 381.5
315.39 K | 382.3
317.46 K | 382.9
319.53 K | 383.8
321.6 K | 384.8
323.67 K | 385.6
325.73 K | 386.4
327.8 K | 387
329.87 K | 388.1
331.94 K | 388.9
334.01 K | 389.7
336.08 K | 390.5
338.15 K | 391.1
340.22 K | 392
342.29 K | 392.8
344.36 K | 393.6
346.43 K | 394.4
348.5 K | 395.5
350.57 K | 396.3
352.65 K | 397.1
354.72 K | 397.9
356.79 K | 398.9
358.86 K | 399.6
360.93 K | 400.6
363 K | 401.4
365.07 K | 402.2
367.14 K | 403.2

CCCCn1cc[n+](C)c1.O=S(=O)([O-])C(F)(F)F [1-butyl-3-methylimidazolium trifluoromethanesulfonate]
Settings | Molar enthalpy of transition or fusion [kcal/mol] | Triple point temperature [K]
[1] | 4.637 | –
[2] | – | 290.98

[3]
Settings | molar heat capacity at constant pressure [J/K/mol]
292.86 K | 425
294.76 K | 425.9
296.65 K | 427
298.54 K | 427.9
300.43 K | 429.1
302.38 K | 429.6
304.36 K | 431.1
306.35 K | 431.9
308.34 K | 433.1
310.33 K | 434
312.32 K | 435.1
314.31 K | 436.3
316.3 K | 437.1
318.29 K | 438.3
320.27 K | 439.1
322.26 K | 440.6
324.25 K | 441.4
326.24 K | 442.6
328.22 K | 443.8
330.2 K | 444.6
332.19 K | 445.8
334.17 K | 446.9
336.15 K | 447.8
338.13 K | 448.9
340.11 K | 449.8
342.09 K | 451
344.07 K | 452.1
346.05 K | 453.3
348.03 K | 454.3
350 K | 455.5
351.98 K | 456.3
353.96 K | 457.8
355.94 K | 458.6
357.92 K | 459.5
359.89 K | 460.7
361.87 K | 462.1
363.84 K | 463
365.81 K | 464.1
367.78 K | 465

CCCC[N+]1(C)CCCC1.O=S(=O)([N-]S(=O)(=O)C(F)(F)F)C(F)(F)F
Settings | Molar enthalpy of transition or fusion [kcal/mol] | Triple point temperature [K]
[1] | 5.234 | –
[2] | – | 265.65

[3]
Settings | molar heat capacity at constant pressure [J/K/mol]
237.44 K | 546.8
239.5 K | 548
241.39 K | 549
243.28 K | 550.7
245.17 K | 552.2
247.06 K | 553.5
248.95 K | 554.6
250.84 K | 556
252.73 K | 557.3
254.62 K | 558.7
256.51 K | 559.6
258.4 K | 561.5
260.29 K | 562.1
262.04 K | 563.9
262.18 K | 563.5
264.07 K | 565.2
264.1 K | 565.2
265.99 K | 566.6
267.88 K | 567.6
269.77 K | 568.9
271.66 K | 570.2
273.55 K | 571.6
275.44 K | 572.9
277.33 K | 574.2
279.22 K | 575.3
281.11 K | 576.6
283 K | 577.9
284.89 K | 579.2
286.78 K | 580.2
288.67 K | 581.4
290.56 K | 582.8
292.45 K | 584
294.34 K | 585.1
296.23 K | 586.3
298.12 K | 588
300.01 K | 589
301.9 K | 590.6
303.79 K | 591.8
305.68 K | 593
307.57 K | 594.5
309.46 K | 595.6
311.34 K | 596.7
313.23 K | 598.2
315.12 K | 599.6
317.02 K | 600.8
318.92 K | 602.2
320.82 K | 603.4
322.71 K | 604.5
324.61 K | 606.1
326.51 K | 607.5
328.41 K | 608.6
330.31 K | 609.9
332.21 K | 611.4
334.11 K | 612.9
336.01 K | 614.2
337.91 K | 615.4
339.81 K | 616.8
341.72 K | 618.2
343.62 K | 619.5
345.52 K | 621
347.44 K | 622.4
349.34 K | 623.9
351.25 K | 625.2
353.16 K | 626.7
355.06 K | 627.9
356.97 K | 629.2
358.87 K | 630.9
360.78 K | 632.1
362.69 K | 633.7
364.59 K | 635
366.5 K | 636.1
368.4 K | 638
